One experiment has as its system bovine coronary artery. Kind of experiment: Vasorelaxant activity in bovine coronary artery rings. The conditions noted are these: for Vascular Relax. % (10 μM): rings precontracted with U-46619, 100% relaxation = basal pre-U-46619 tension; for EC50: Bos taurus, bovine coronary artery rings precontracted with U-46619, read-out: Vascular Relax. EC50. The method, then: Vasorelaxant activity was measured in bovine coronary artery. Bovine hearts were obtained and the left anterior descending coronary artery was dissected and cleaned of connective tissue. Vessels of 1 mm diameter were cut into rings of 3 mm width as previously described (3, 27, 39). […] The vessels were suspended from a pair of stainless steel hooks in a 6-ml water jacketed organ chamber. […] One hook was anchored to a steel rod and the other hook to a force transducer (model FT-03C; Grass Instruments, West Warwick, R.I.). Tension of the vessel was measured by an ETH-400 bridge amplifier, and the data were acquired with a MacLab 8e analog-to-digital converter and MacLab software version 3.5.6 (AD Instruments, Milford, Mass.) and stored on a Macintosh computer for subsequent data analysis.
Basal tension was set at the length-tension maximum of 3.5 g and equilibrated for 1.5 h. KCl (40 mM) was added to the chamber until reproducible maximal contractions were maintained. […] Cumulative additions of compounds were added to the chamber. Between concentration-response curves, the chambers were rinsed with fresh Krebs buffer, 40 mM KCl was administered to determine the maximum contraction, and the vessels were rinsed. Consecutive concentration-response curves were performed with 14,15-EET followed by a concentration-response curve to a compound. The experiment was always repeated with the order of the agonists reversed. […] The relaxation was plotted versus compound concentration and the EC50 determined utilizing statistical software.

The target of a further experiment is Human recombinant sEH (Homo sapiens (Human), UniProt P34913). Kind of experiment: Soluble epoxide hydrolase inhibition (PHOME fluorescent substrate). The class given is biochemical. The note with it: human recombinant sEH, PHOME substrate, 0.1 to 1000 nM; read-out: sEHi IC50. The method, then: Compounds were tested for their ability to inhibit recombinant soluble epoxide hydrolase (sEH) protein. The assay utilizes (3-Phhenyl-oxiranyl)-acetic acid cyano-(6-methoxy-naphthalen-2-yl)-methyl ester (PHOME), a sensitive substrate for sEH that can be used to monitor the activity of both human and murine enzymes. […] Human recombinant sEH was incubated with substrate and compounds ranging in concentration from 0.1 to 1000 nM.
Sequence of Human recombinant sEH (P34913 whole entry): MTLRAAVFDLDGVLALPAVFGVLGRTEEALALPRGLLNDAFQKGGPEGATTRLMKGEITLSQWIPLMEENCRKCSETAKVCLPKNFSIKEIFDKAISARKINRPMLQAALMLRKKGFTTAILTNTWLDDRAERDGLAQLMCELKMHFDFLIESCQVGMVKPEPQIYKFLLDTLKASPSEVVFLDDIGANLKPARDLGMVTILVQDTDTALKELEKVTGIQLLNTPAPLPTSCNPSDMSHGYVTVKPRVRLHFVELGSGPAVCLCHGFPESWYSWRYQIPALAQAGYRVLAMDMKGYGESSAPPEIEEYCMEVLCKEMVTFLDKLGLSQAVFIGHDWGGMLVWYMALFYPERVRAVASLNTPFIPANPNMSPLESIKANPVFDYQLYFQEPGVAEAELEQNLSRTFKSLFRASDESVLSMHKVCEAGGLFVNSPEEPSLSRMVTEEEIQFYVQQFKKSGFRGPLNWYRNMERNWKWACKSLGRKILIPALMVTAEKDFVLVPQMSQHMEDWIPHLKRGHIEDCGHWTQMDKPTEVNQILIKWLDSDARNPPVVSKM

Experiment [1] deals with cisplatin-induced nephrotoxicity in Wistar-Kyoto (WKY) rats. Kind of experiment: Cisplatin-induced nephrotoxicity in rats. It is filed as in vivo, rat. From the text: Experiments were approved and carried out according to the guidelines of the Institutional Animal Care and Use Committee, Medical College of Wisconsin, Milwaukee, USA. Male Wistar-Kyoto (WKY) rats weighing 180-200 g (Charles River, Mass., USA). All animals were kept in a temperature-controlled environment with a 12-h light/dark cycle and were allowed free access to food and water at all times. An acclimatization period of 6 days was allowed for the rats before experimentation. The rats were assigned into four groups. […] Rats received drinking water ad libitum for seven days and on day 7 DMSO (Sigma Aldrich, St. Louis, Mo., USA) was administered (300-500 μl i.p.). […] These rats are pretreated with the EET analog […].) for seven days in drinking water and then on day 7 administered CP as a single injection (7 mg/kg i.p.) followed by another five days treatment with EET-A. […] One day before the rats were sacrificed, urine of each rat was collected over a 24-h period, and the volume was measured. Five days after CP or DMSO administration, rats were anesthetized for blood sample collection followed by euthanasia and tissue collection. Urine and plasma samples were kept frozen at -80° C. until analyzed. The kidneys were removed, washed with physiological saline and stored at -80° C. until used for RT-PCR analysis, thiobarbituric acid reactive substance (TBARS) measurement and caspase 3 activity assay. […] The levels of blood urea nitrogen (BUN) (BioAssay Systems, Hayward, Calif., USA) and serum creatinine (Cayman Chemical Company, Ann Arbor, Mich., USA) were measured spectrophotometrically using commercial kits. Urinary content of creatinine and protein were measured using commercial kits (Cayman Chemical Company, Ann Arbor, Mich., USA), and the activity of urinary N-acetyl-b-glucosaminidase (NAG) in the urine was measured by a kit from Diazyme (Diazyme Laboratories, Poway, Calif., USA). While urine content of kidney injury molecule-1 (KIM-1) was measured using ELISA (R&D Systems, Inc. Minneapolis, Minn., USA). Malondialdehyde (MDA) is a thiobarbituric acid reactive substance (TBARS) that is formed as an end-product of lipid peroxidation and serves as an important index of oxidative stress. […] Using a commercially available kit (Cayman Chemical Company, Ann Arbor, Mich., USA), MDA was measured spectrophotometrically after reaction with thiobarbituric acid. […] Louis, Mo., USA). Kidney homogenate was prepared with a lysis Buffer (50 mM HEPES, pH 7.4, with 5 mM CHAPS and 5 mM DTT). […] The caspase 3 activity is expressed as nmol of AMC/min/μL. Real-Time analysis was carried out to assess the expression of oxidative (gp91phox, NOX1, SOD1, SOD2, SOD3), inflammatory (TNF-α, IL-6, apoptotic (Bax, Bak, Bcl-2) and endoplasmic reticulum stress (GRP78, caspase 12) related genes in the kidney. Total RNA was isolated from kidney homogenate using TRIzol LS reagents (Invitrogen Life Technologies, Carlsbad, Calif., USA) according to the manufacturer's instructions. The isolated RNA was treated with RNase-free DNase (Invitrogen, Carlsbad, Calif., USA) to remove traces of genomic DNA contamination. The mRNA samples were quantified by spectrophotometry at 260 nm and 1 μg of total RNA was reverse-transcribed to cDNA using iScriptTM Select cDNA Synthesis Kit (Bio-Rad, Hercules, Calif., USA). The target gene expression was quantified by iScript One-Step RT-PCR Kit with SYBR green using MyiQTM Single Color Real-Time PCR Detection System (Bio-Rad Laboratories, Hercules, Calif., USA). Each amplified sample in all wells was analyzed for homogeneity using dissociation curve analysis using iQ5 Optical System Software, Version 2.1 (Bio-Rad Laboratories, Hercules, Calif., USA). […] In analyzing the relative expression of the target genes, the Ct values were normalized to a housekeeping gene (pgk1). Statistical analyses were carried out for at least 5-7 experimental samples in each experimental group. Primers used in this study were designed based on several earlier reports. […]

Experiment [2] has as its system Spontaneously Hypertensive Rats (SHR). Kind of experiment: Telemetry blood pressure and heart rate in spontaneously hypertensive rats. It is filed as in vivo, rat. From the text: To accurately detect changes in blood pressure and heart rate, telemetry transmitters (Data Sciences Inc., St. Paul, Minn.) were implanted in rats one week prior to the experimental period according to manufacturer's specifications while under pentobarbital anesthesia. In brief, an incision was made to expose the femoral artery that was occluded to allow insertion of the transmitter catheter. The catheter was secured in place with tissue glue and the transmitter body was sutured in place and the incision line was closed. Rats were allowed to recover from surgery and were returned to individual housing. A baseline arterial pressure was recorded for prior to the experimental period. Mean arterial pressure was continuously recorded throughout the experimental period.
Telemetry transmitters were implanted into male SHR as described. After the surgical recovery period, baseline mean arterial pressure was recorded. In this series of experiments, EET analogs were administered by osmotic pump (2 mg/d, i.p.) and blood pressure was continuously monitored.

Each structure is given as a SMILES string.

Turning to `CCCCCNC(=O)NCCCC/C=C\CCCCCCc1noc(=S)[nH]1` [Compound 28], the “Vascular Relax. % (10 μM)” value in the experiment with bovine coronary artery was found to be 93%. `CCCCCCC(=O)N(CCCC/C=C\CCCCCCC(=O)NCC(=O)O)C(C)C` [Compound 5, 2-(13-(N-Isopropylheptanamido)tridec-8(Z)-enamido)acetic acid]: the IC50 on Human recombinant sEH was over 0.5 µM. Also, the “Vascular Relax. % (10 μM)” value with bovine coronary artery worked out at 95%. On to `CCCCCNC(=O)NCCCC/C=C\CCCCOCC(=O)O` [Compound 4, 2-(10-(3-n-Pentylureido)dec-5(Z)-enyloxy)acetic acid], for which the “Vascular Relax. % (10 μM)” value in the experiment on bovine coronary artery is reported as 49%. Consider `CCCCCCC(=O)N(CCCCCOc1cccc2sc(NC(=O)C(C)(C)C)nc12)C(C)C` [EET-B, N-Isopropyl-N-(5-(2-pivalamidobenzo[d]thiazol-4-yloxy)pentyl)heptanamide], for which, in experiment [1] (10 mg/kg/d p.o., vehicle 16±2), the “kidney TBARS formation” value was 8 ± 1 µmol/g. Moreover, the “reductions in renal mRNA expressions of inflammatory markers (TNF-α, IL-6, interleukin-1β)” value in experiment [1] (cisplatin-administered rats) is listed as 40-60%. The proteinuria in experiment [1] (cisplatin-administered rats, vehicle 53±5) was 32 ± 3 mg/day. In addition, the “reductions in the elevated levels of serum creatinine and BUN” value in experiment [1] (five days after cisplatin, vs. vehicle) was 30-50%. This compound displayed an NAG in experiment [1] (urinary, 10 mg/kg/d p.o., vehicle 3.0±0.6) of 0.6±0.2 U/d. Moreover, in experiment [1] (urinary, 10 mg/kg/d p.o., vehicle 296±94), the KIM-1 was found to be 57 ± 13 ng/day. For `CCCCCNC(=O)NCCCC/C=C\CCCCCCC(=O)NS(C)(=O)=O` [Compound 9, N-(Methylsulfonyl)-13-(3-n-pentylureido)tridec-8(Z)-enamide], in the experiment with bovine coronary artery, the “Vascular Relax. % (10 μM)” value came to 61%. Consider `CCCCCNC(=O)NCCCC/C=C\CCCCCCC(=O)NS(=O)(=O)c1ccccc1` [Compound 8, 13-(3-n-Pentylureido)-N-(phenylsulfonyl)tridec-8(Z)-enamide], for which the “Vascular Relax. % (10 μM)” value with bovine coronary artery is 73%.

For `CCCCCCC(=O)N(CCCC/C=C\CCCCCCC(=O)OCCOCCOCCO)C(C)C` [Compound 1, 2-(2-(2-Hydroxyethoxyl)ethoxy)ethyl 13-(N-isopropylheptanamido)tridec-8(Z)-enoate], in the experiment with bovine coronary artery, the “Vascular Relax. % (10 μM)” value was 86% and the EC50 was determined as 2.9 µM. Consider `CCCCCNC(=O)NCCCC/C=C\CCCCCCc1nsc(=O)[nH]1` [Compound 29], for which, in the experiment on bovine coronary artery, the “Vascular Relax. % (10 μM)” value turned out to be 54%. With `CCCCCNC(=O)NCCCC/C=C\CCCCCCC(=O)OCCOCCOCCO` [Compound 2, 2-(2-(2-Hydroxyethoxyl)ethoxy)ethyl 13-(3-n-pentylureido)tridec-8(Z)-enoate], in the experiment on bovine coronary artery, the “Vascular Relax. % (10 μM)” value was found to be 72% and the EC50 was found to be 5.1 µM. For the compound `CCCCCNC(=O)NCCCC/C=C\CCCCCCc1noc(=O)[nH]1` [Compound 23], the “Vascular Relax. % (10 μM)” value in the experiment with bovine coronary artery is listed as 89%. `CCCCNC(=O)C(=O)NCCCCCOc1cccc2sc(NC(C)=O)nc12` [Compound 32, N^1-(5-(2-Acetamidobenzo[d]thiazol-4-yloxy)pentyl)-N^2-n-butyloxalamide]: at Human recombinant sEH, the IC50 was over 0.5 µM. Moreover, the “Vascular Relax. % (10 μM)” value in the experiment with bovine coronary artery came out at 96%. As for `CCCCCCC(=O)N(CCCC/C=C\CCCCCCC1=NOS(=O)N1)C(C)C` (stereo not drawn) [Compound 26], the blood pressure in experiment [2] (2 mg/d i.p. osmotic pump, after two weeks of treatment, vehicle 141±3.0) is reported as 150±5.0 mmHg. With `CCCCCNC(=O)NCCCC/C=C\CCCCCCP(=O)([O-])[O-].[Na+].[Na+]` [Compound 10], the “Vascular Relax. % (10 μM)” value in the experiment on bovine coronary artery amounted to 71%.

For `CCCCCN(C)C(=O)N(C)CCCC/C=C\CCCCCCC(=O)NCC(=O)O` [Compound 6, 2-(13-(1,3-Dimethyl-3-n-pentylureido)tridec-8(Z)-enamido)acetic acid], the “Vascular Relax. % (10 μM)” value in the experiment with bovine coronary artery is recorded as 92%.

Turning to `CCCCNC(=O)C(=O)NCCCC/C=C\CCCCCCc1nnn[nH]1` [Compound 21], in the experiment with bovine coronary artery, the “Vascular Relax. % (10 μM)” value was found to be 96%. On to `CCCCCCC(=O)N(CCCC/C=C\CCCCCCc1nnn[nH]1)C(C)C` [Compound 19], for which the IC50 at Human recombinant sEH was over 0.5 µM. Further, the “Vascular Relax. % (10 μM)” value in the experiment with bovine coronary artery is 74%. Take `CCCCCNC(=O)NCCCC/C=C\CCCCCCC(=O)N[C@@H](CC(=O)O)C(=O)O` (stereo in doubt) [Compound 7, (S)-2-(13-(3-n-Pentylureido)tridec-8(Z)-enamido)succinic acid]: the “Vascular Relax. % (10 μM)” value in the experiment on bovine coronary artery came out at 91%.

Consider `CCCCCNC(=O)NCCCC/C=C\CCCCCCS(=O)(=O)[O-].[Na+]` [Compound 11], for which the “Vascular Relax. % (10 μM)” value in the experiment with bovine coronary artery was found to be 63%.

In the case of `CCCCCNC(=O)NCCCC/C=C\CCCCCCCc1nnn[nH]1` [Compound 22, 1-(13-(1H-Tetrazol-5-yl)tridec-5(Z)-enyl)-3-n-pentylurea], in the experiment with bovine coronary artery, the “Vascular Relax. % (10 μM)” value is 110%. Regarding `CCCCNC(=O)C(=O)NCCCC/C=C\CCCCCCC(=O)OCCOCCOCCO` [Compound 3, 2-(2-(2-Hydroxyethoxyl)ethoxy)ethyl13-(2-(n-butylamino)-2 oxoacetamido)tridec-8(Z)-enoate], in the experiment on bovine coronary artery, the “Vascular Relax. % (10 μM)” value was 104% and the EC50 amounted to 1.5 µM. For the compound `CCCCCNC(=O)NCCCCCOc1cccc2sc(NC(C)=O)nc12` [Compound 31, N-(4-(5-(3-n-Pentylureido)pentyloxy)benzo[d]thiazol-2-yl)acetamide], the “Vascular Relax. % (10 μM)” value in the experiment with bovine coronary artery was determined as 73%. In turn, `CCCCCNC(=O)NCCCC/C=C\CCCCCCc1nnn[nH]1` [Compound 20] registered a heart rate in experiment [2] (2 mg/d i.p., vehicle 331±17.0) of 325±11.0 BPM.
